This is an account of results in patent EP2095819A1, “N-benzyl imidazole derivatives and their use as aldosterone synthase inhibitors” (Maastricht University, priority 2008, dated 2009).

One test deals with T1, human CYP11B2 (Homo sapiens, UniProt P19099).
T1 construct: expressed in transfected cells; host or cells: V79 Chinese hamster cells
T1 sequence (P19099 25-503): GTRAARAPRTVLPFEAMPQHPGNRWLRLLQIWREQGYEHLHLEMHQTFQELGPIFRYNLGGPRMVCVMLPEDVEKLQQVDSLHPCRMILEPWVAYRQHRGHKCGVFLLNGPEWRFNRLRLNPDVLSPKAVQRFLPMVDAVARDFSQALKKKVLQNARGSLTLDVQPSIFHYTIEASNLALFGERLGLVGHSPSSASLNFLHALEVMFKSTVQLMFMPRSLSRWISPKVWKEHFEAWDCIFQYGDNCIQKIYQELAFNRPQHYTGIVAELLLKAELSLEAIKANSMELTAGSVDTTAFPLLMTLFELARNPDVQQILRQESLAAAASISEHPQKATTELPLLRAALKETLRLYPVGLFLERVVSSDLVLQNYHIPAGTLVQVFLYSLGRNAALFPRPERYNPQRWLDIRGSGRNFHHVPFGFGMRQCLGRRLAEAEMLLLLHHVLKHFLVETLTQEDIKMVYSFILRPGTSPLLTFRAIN
Nature of the test: Inhibitor potency for human CYP11B2 in V79 cells expressing the enzyme (HPLC steroid analysis). It is filed as cell-based. The settings on record: for Ratio: Ratio = IC50 CYP11B1/ IC50 CYP11B2 (selectivity); for IC50: V79 cells stably (over)expressing human CYP11B2, 1 hour with inhibitor, then 11-deoxycorticosterone 500 nM for three hours, read-out: IC50 11B2. The procedure: (§1) Inhibitor potencies for human CYP11B1 and CYP11B2 were determined in an in vitro assay using V79 cells in which human CYP11B1 or CYP11B2 are expressed.
The V79 cells stably (over)expressing human CYP11 B2 were developed in the laboratory of Prof. Rita Bernhardt, Institute of Biochemistry, Saarland University, Saarbrücken, Germany : • Denner K, Doehmer J,Bernhardt R. "Cloning of CYP11B1 and CYP11B2 from normal human adrenal and their functional expression in COS-7 and V79 Chinese hamster cells" Endocr Res 1995;21:443-8; • Bottner B, Denner K, Bernhardt R "Conferring aldosterone synthesis to human CYP11B1 by replacing key amino acid residues with CYP11B2 ones", Eur. J. Biochem. 1998; 252: 458-466; • Denner K, Vogel R, Schmalix W, Doehmer J, Bernhardt R.: "Cloning and stable expression of the human mitochondrial cytochrome P45011B1 cDNA in V79 Chinese hamster cells and their application for testing of potential inhibitors." Pharmacogenetics 1995; 5: 89-96; • Denner K, Bernhardt R. "Inhibition studies of steroid conversions mediated by human CYP11B1 and CYP11B2 expressed in cell cultures". In: Oxygen Homeostasis and Its Dynamics. Springer-Verlag, Tokyo, Berlin, Heidelberg, New York 1998, pp 231-236; • Ehmer PB, Bureik M, Bernhardt R, Muller U, Hartmann RW. "Development of a test system for inhibitors of human aldosterone synthase (CYP11B2): screening in fission yeast and evaluation of selectivity in V79 cells." J. Steroid Biochem Mol Biol. 2002; 81: 173-179.
(§2) Cells were cultured under standard conditions in DMEM/FK12 medium (Gibco, Gaitersburg, USA) supplemented with 10% foetal calf serum (Hyclone, Logan, USA), penicillin/streptomycin (100 U/ml and 100 µg/ml, respectively Gibco). Cell culturing and incubation experiments (see below) with the cells were performed at 37°C in a humid environment and 5%CO2 atmosphere.
(§3) Next, cells were incubated for 1 hour in serum free medium with cumulative inhibitor concentrations. […] After these incubation times, medium was collected for steroid analysis by HPLC. To extract the (produced) steroids from the medium, 1 ml aliquots of medium were mixed with 1 ml 1 M sodium-glycine buffer (pH 10.5) containing 500 nM methylprednisolone (Sigma-Aldrich) as internal standard and 5 ml of diethylether (Biosolve, Valkenswaard, the Netherlands). After shaking for 3 minutes, the samples were briefly centrifuged and the organic phase (containing the steroids) transferred into another tube and blown to dryness under a stream of nitrogen. The dried extracts were dissolved in 100 µl of mobile phase to be used for automated HPLC analysis. The HPLC system comprised a MR column (4.6 x 50 mm, particle size 2.5 µm; Shimadzu, Tokyo, Japan) as a stationary phase and a mixture of 680/320/1 (v/v/v) milliQ water, acetonitrile and trifluoro-acetic acid as mobile phase at a flow rate of 1.0 ml/minute. Steroids were detected by UV absorption at 243 nm (Shimadzu, Tokyo, Japan). To quantitate the steroids, peak area ratios versus the internal standard (methylprednisolone) were determined and compared with calibration curves.
(§4) Determination of IC50 values (potencies) was based on at least 5 inhibitor concentrations and was derived from the generic equation for enzyme inhibition at fixed substrate concentration vi = v0/(1 + I/IC50) with vi and v0 being the reaction velocities in the presence or absence of inhibitor respectively, and I being the inhibitor concentration (Cornish-Bowden A, "Analysis of enzyme kinetic data.", Oxford University Press, Oxford, 1995). All analyses were conducted at least in duplicate. […]

The target of the next test is T2, human CYP11B1 (Homo sapiens, UniProt P15538).
T2 construct: The full length cDNA for human CYP11B1 was obtained by PCR from human adrenal cDNA; expressed in transfected cells; host or cells: V79 Chinese hamster cells, stably transfected with pcDNA3.1 (hygromycin resistance)
T2 sequence (P15538 25-503): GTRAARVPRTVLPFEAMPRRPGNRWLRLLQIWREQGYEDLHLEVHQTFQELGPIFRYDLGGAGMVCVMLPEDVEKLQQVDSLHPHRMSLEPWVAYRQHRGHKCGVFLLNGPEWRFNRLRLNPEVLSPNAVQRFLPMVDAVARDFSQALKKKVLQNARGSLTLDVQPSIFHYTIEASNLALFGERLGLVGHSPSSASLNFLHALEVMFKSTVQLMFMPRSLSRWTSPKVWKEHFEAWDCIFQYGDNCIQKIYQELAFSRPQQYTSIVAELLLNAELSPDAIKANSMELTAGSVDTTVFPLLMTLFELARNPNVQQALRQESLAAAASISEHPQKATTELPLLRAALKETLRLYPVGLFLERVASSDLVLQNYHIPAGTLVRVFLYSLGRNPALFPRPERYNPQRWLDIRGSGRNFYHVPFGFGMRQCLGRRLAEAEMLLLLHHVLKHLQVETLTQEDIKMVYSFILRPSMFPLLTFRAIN
Nature of the test: Inhibitor potency for human CYP11B1 in V79 cells expressing the enzyme (HPLC steroid analysis). The class given is cell-based. The settings on record: V79 cells (over)expressing human CYP11B1; 1 hour with inhibitor, then 11-deoxycorticosterone 500 nM for another hour; read-out: IC50 11B1. How it is done: as §1
The human CYP11B1 (over)expressing V79 cells (stably transfected with a pcDNA3.1 vector, carrying a hygromycin resistance box) were constructed at Organon (Newhouse, UK) in the following manner. The full length cDNA for human CYP11B1 was obtained by PCR from human adrenal cDNA as described by Kawamoto et al ("Cloning of cDNA and genomic DNA for human cytochrome P-45011 beta" FEBS Lett 1990;269:345-9) and cloned into pPCR SCRIPT (Stratagene, La Jolla, USA). After digestion with Xho I and Not I, the obtained cDNA was inserted into a Xho I/Not I digested pcDNA3.1 vector (InVitrogen, Breda, Netherlands), carrying a hygromycin resistance box. Following transfection to the V79 cells, positive cells were selected based on their hygromycin resistance. The presence of the CYP11B1 gene was confirmed by PCR and the presence of 11β-hydroxylase activity (i.e. the ability to produce corticosterone or cortisol from 11-deoxycorticosterone or 11-deoxycortisol respectively). […] In normal (non transfected) V79 cells, no detectable 11β-hydroxylase activity or PCR signals were found.
as §2, §3, §4

Take `OCCCc1cncn1Cc1ccc(F)cc1` [Compound 15, 3-[1-(4-Fluorobenzyl)-1H-imidazol-5-yl]propanol]: on human CYP11B2, the Ratio came out at 6.9 and the IC50 was found to be 16.8 nM. Further, the IC50 at human CYP11B1 was 116 nM.

`COC(=O)CCc1cncn1Cc1ccc(C#N)cc1` [Compound 18, Methyl 3-[1-(4-cyanobenzyl)-1H-imidazol-5-yl]propanoate]: at human CYP11B2, the Ratio was determined as 8.9. Also, the figures for the IC50 at human CYP11B2 and on human CYP11B1 were 3.5 nM and 31.1 nM, respectively.

On to `COC(=O)CCc1cncn1Cc1ccc(Br)cc1` [Compound 20, Methyl 3-[1-(4-bromobenzyl)-1H-imidazol-5-yl]propanoate], for which, at human CYP11B2, the Ratio is 14.4 and the IC50 worked out at 4 nM. The concentration for half-maximal inhibition (IC50) on human CYP11B1 turned out to be 57.4 nM.

Consider `Cc1cncn1Cc1ccc(C#N)cc1` [Compound 42, 4-[(5-Methyl-1H-imidazol-1-yl)methyl]benzonitrile], for which, on human CYP11B2, the Ratio was 11.4 and the IC50 was 12.3 nM. The half-maximal inhibitory concentration (IC50) on human CYP11B1 turned out to be 140 nM.

Turning to `N#Cc1ccc(Cn2cncc2-c2ccccc2)cc1` [Compound 43, 4-[(5-Phenyl-1H-imidazol-1-yl)methyl]benzonitrile], on human CYP11B2, the Ratio is 15.7 and the IC50 was found to be 1.7 nM. On human CYP11B1, the IC50 stood at 27.5 nM.

As for `N#Cc1ccc(Cn2cncc2C=O)cc1` [Compound 44, 4-[(5-Formyl-1H-imidazol-1-yl)methyl]benzonitrile], on human CYP11B2, the Ratio was determined as 7.7 and the 50% inhibitory concentration (IC50) amounted to 61.8 nM. The half-inhibitory concentration (IC50) on human CYP11B1 was determined as 478 nM.

For `COC(=O)c1cncn1Cc1ccc(C#N)cc1` [Compound 45, Methyl 1-(4-cyanobenzyl)-1H-imidazole-5-carboxylate], at human CYP11B2, the Ratio was 6.7 and the IC50 is 7.1 nM. In addition, at human CYP11B1, the IC50 was 47.8 nM.

Take `O=[N+]([O-])c1ccc(Cn2cncc2-c2ccccc2)cc1` [Compound 50, 1-(4-Nitrobenzyl)-5-phenyl-1H-imidazole]: on human CYP11B2, the Ratio worked out at 5.9 and the IC50 is 2.3 nM. The IC50 at human CYP11B1 came to 13.7 nM.

With `N#Cc1ccc(Cn2cncc2CO)cc1` [Compound 52, 1-(4-cyanobenzyl)-5-hydroxymethyl-1H-imidazole], at human CYP11B2, the Ratio is given as 10 and the IC50 was determined as 28.5 nM. Further, the 50% inhibitory concentration (IC50) on human CYP11B1 stood at 285 nM.

Consider `Cc1ccccc1-c1cncn1Cc1ccc(C#N)cc1` [Compound 57, 4-[(5-(2-Methylphenyl)-1H-imidazol-1-yl)methyl]benzonitrile], for which, on human CYP11B2, the Ratio came out at 10.5 and the IC50 came to 0.7 nM. The IC50 on human CYP11B1 is 7.6 nM.

Take `N#Cc1ccc(Cn2cncc2-c2cccc(F)c2)cc1` [Compound 58, 4-[(5-(3-Fluorophenyl)-1H-imidazol-1-yl)methyl]benzonitrile]: the Ratio on human CYP11B2 came to 5.8. Besides, the IC50 at human CYP11B2 is 5.5 nM; at human CYP11B1 it was 31.8 nM.

As usually defined, the IC50 is the concentration at which inhibition is half-maximal.
